The text below walks through data of patent US20240252509A1, “SELF-PRESERVING COMPOSITIONS AND MULTI-USE DISPENSERS FOR ADMINISTERING ALPHA-1062” (priority 2021, published 2024).

For series [1], the system named is Escherichia coli (ATCC No. 8739). Nature of the series: USP 51 Preservative Challenge Test, E. coli. Type of series: cell-based. Conditions: E. coli ATCC 8739, 82 mg/mL solution in water. The procedure:
(§1) In order to assess the anti-microbial properties of Alpha-1062, the USP (US Pharmacopeia) Chapter 51 Preservative Challenge Test (USP 51) was employed. The USP 51 is a common method used to gauge preservative effectiveness. Much like a Preservative Challenge Screen, it is used to evaluate the effect of preservatives in cosmetics, personal care products, and drug products. Preservatives are typically antimicrobial ingredients that are added to aqueous product formulations to help maintain the safety of the product by inhibiting the growth and reducing the number of microbial contaminants.
(§2) In the context of the present invention, Alpha-1062 (in the form of the gluconate salt) was assessed in place of (as) a preservative. No additional preservative was added to the Alpha-1062 gluconate preparation, rather an anti-microbial effect of the agent itself (Alpha-1062) was assessed. Alpha-1062 is therefore the anti-microbial agent in the assay and experiments described below.
(§3) Cultures of the following microorganisms were applied, as per standard guidelines for USP 51: • Candida albicans (ATCC No. 10231), • Aspergillus brasiliensis (ATCC No. 16404), • Escherichia coli (ATCC No. 8739), • Pseudomonas aeruginosa (ATCC No. 9027), and • Staphylococcus aureus (ATCC No. 6538). […]
(§4) The inoculated containers were incubated at 22.5±2.5° C. and each container was sampled at the appropriate intervals, as specified in Table 3. Any changes observed in the appearance of the culture was recorded at these intervals. By using the plate-count procedure, the number of CFU present in each test preparation was determined for the applicable intervals.
(§5) An inactivator (neutralizer) of the specific antimicrobial was incorporated in the plate count or in the appropriate dilution prepared for plating. These conditions were determined in the validation study for that sample based upon the conditions of media and microbial recovery incubation times listed in Table 2. Using the calculated concentrations of CFU per mL present at the start of the test, the change in log 10 values of the concentration of CFU per mL for each microorganism was calculated at the applicable test intervals, and the changes were expressed in terms of log reductions.
(§6) The requirements for antimicrobial effectiveness are met if the criteria specified under Table 3 are met. No increase is defined as not more than 0.5 log 10 unit higher than the previous value measured. […]
(§7) The USP Criteria for Category 2 were employed in order to determine the presence of an anti-microbial effect. […] For yeast and molds, an antimicrobial effect is evident when no increase from the initial calculated count is determined at 14 and 28 days.

Series [2] deals with Pseudomonas aeruginosa (ATCC No. 9027). The series is described as follows: USP 51 Preservative Challenge Test, P. aeruginosa. Type of series: cell-based. Conditions: P. aeruginosa ATCC 9027, 82 mg/mL solution in water. As for the experimental part:
as §1, §2, §3, §4, §5, §6, §7

Series [3] has as its system Staphylococcus aureus (ATCC No. 6538). The series is described as follows: USP 51 Preservative Challenge Test, S. aureus. Type of series: cell-based. Conditions: S. aureus ATCC 6538, 82 mg/mL solution in water. The procedure:
as §1, §2, §3, §4, §5, §6, §7

Series [4] has as its system Candida albicans (ATCC No. 10231). The series is described as follows: USP 51 Preservative Challenge Test, C. albicans. Type of series: cell-based. The note with it: C. albicans ATCC 10231, 82 mg/mL solution in water. The procedure:
as §1, §2, §3, §4, §5, §6, §7

Series [5] relates to Aspergillus brasiliensis (ATCC No. 16404). The series is described as follows: USP 51 Preservative Challenge Test, A. brasiliensis. Type of series: cell-based. Conditions: A. brasiliensis ATCC 16404, 82 mg/mL solution in water. The procedure: as §1, §2, §3, §4, §5, §6, §7
Series [6] deals with all 5 organisms tested in the USP 51. Nature of the series: USP 51 test, overall assessment against Category 2 criteria. The class given is cell-based. The note with it: 82 mg/mL solution in water, USP Criteria for Category 2. The procedure: as §1
In the context of the present invention, Alpha-1062 (in the form of the gluconate salt) was assessed in place of (as) a preservative. No additional preservative was added to the Alpha-1062 gluconate preparation, rather an anti-microbial effect of the agent itself (Alpha-1062) was assessed. […]
as §6, §7

For series [7] the following is noted: salts described in WO 2014/016430; cited from earlier work.
[8] abbreviates: Day 14, log10 reduction from initial count.
[9] abbreviates: Day 28, log10 reduction from initial count.

With `COc1ccc2c3c1O[C@H]1C[C@@H](OC(=O)c4ccccc4)C=C[C@@]31CCN(C)C2` [Alpha-1062 Gluconate], the “CFU/mL Day 14” value in series [1] (Day 14, 22.5±2.5° C., initial 9.1 × 10^5 CFU/mL) is reported as <10 CFU/mL; in series [2] (Day 14, initial 2.9 × 10^5 CFU/mL), <10 CFU/mL; in series [3] (Day 14, initial 4.0 × 10^5 CFU/mL), <10 CFU/mL; in series [4] (Day 14, initial 6.7 × 10^5 CFU/mL), <10 CFU/mL; in series [5] (Day 14, initial 2.2 × 10^5 CFU/mL), 1.6 × 10^2 CFU/mL. Also, the “Log Reduction Day 14” value in series [1] (setting [8]) was 5.0; in series [2] (setting [8]), 4.5; in series [3] (setting [8]) it was 4.6; in series [4] (setting [8]), 4.8; in series [5] (setting [8]) it was 3.1. Further, the “CFU/mL Day 28” value in series [1] (Day 28, initial 9.1 × 10^5 CFU/mL) is reported as <10 CFU/mL; in series [2] (Day 28, initial 2.9 × 10^5 CFU/mL), <10 CFU/mL; in series [3] (Day 28, initial 4.0 × 10^5 CFU/mL), <10 CFU/mL; in series [4] (Day 28, initial 6.7 × 10^5 CFU/mL), <10 CFU/mL; in series [5] (Day 28, initial 2.2 × 10^5 CFU/mL), 1.5 × 10^2 CFU/mL. The “Log Reduction Day 28” value in series [1] (setting [9]) stood at 5.0; in series [2] (setting [9]), 4.5; in series [3] (setting [9]), 4.6; in series [4] (setting [9]), 4.8; in series [5] (setting [9]) it was 3.1. Moreover, in series [6], the “anti-microbial effect in the USP 51” value is “strong anti-microbial effect”. The solubility in water result in series [7] is listed as “above 10 % weight per volume (w/v)”.
